Reference: patent US20170348269A1, “TREATMENT OF UREA CYCLE DISORDERS IN NEONATES AND INFANTS” (Horizon Therapeutics, LLC, priority 2016, published 2017)
“And” between values parts separate entries of the source, which are not always exact repeats. Identical values can stand only once.

Columns and labels:
[1] = tested on: venous ammonia in pediatric patients with UCDs; test: Study 6, uncontrolled open-label study in children under 2 years of age; type: in vivo, human
Procedure: Uncontrolled, open-label studies were conducted to assess monthly ammonia control and hyperammonemic crisis of RAVICTI® in pediatric patients with UCDs 2 months to less than 2 years of age (Study 4/4E, Study 5, and Study 6). Patients in Study 5 previously participated in Study 4/4E. A total of 17 pediatric patients with UCDs aged 2 months to less than 2 years participated in the studies.
A total of 10 pediatric patients with UCDs aged 2 months to less than 2 years participated in Study 6, of which 7 patients converted from sodium phenylbutyrate to RAVICTI®. The dosage of RAVICTI® was calculated to deliver the same amount of PBA as the sodium phenylbutyrate dosage the patients were taking when they entered the trial. Two patients were treatment naïve and received RAVICTI® dosage of 7.5 mL/m^2/day and 9.4 mL/m^2/day, respectively. One additional patient was gradually discontinued from intravenous sodium benzoate and sodium phenylacetate while RAVICTI® was initiated. The dosage of RAVICTI® after transition was 8.5 mL/m^2/day.
In Study 6, there were 9, 7 and 3 pediatric patients who completed 1, 3 and 6 months, respectively (mean and median exposure of 4 and 5 months, respectively).
Patients received a mean RAVICTI® dose of 8 mL/m^2/day (8.8 g/m^2/day), with doses ranging from 4.8 to 11.5 mL/m^2/day (5.3 to 12.6 g/m^2/day). Patients were dosed three times a day (n=6), four times a day (n=2), or five or more times a day (n=2).
The primary efficacy endpoint was successful transition to RAVICTI® within a period of 4 days followed by 3 days of observation for a total of 7 days, where successful transition was defined as no signs and symptoms of hyperammonemia and a venous ammonia value less than 100 micromol/L. Venous ammonia levels were monitored for up to 4 days during transition and on day 7. Nine patients successfully transitioned as defined by the primary endpoint. One additional patient developed hyperammonemia on day 3 of dosing and experienced surgical complications (bowel perforation and peritonitis) following jejunal tube placement on day 4. This patient developed hyperammonemic crisis on day 6, and subsequently died of sepsis from peritonitis unrelated to drug. Although two patients had day 7 ammonia values of 150 micromol/L and 111 micromol/L respectively, neither had associated signs and symptoms of hyperammonemia.
During the extension phase, venous ammonia levels were monitored monthly. Ammonia values across different laboratories were normalized (transformed) to a common normal pediatric range of 28 to 57 micromol/L for comparability. The mean normalized venous ammonia values in pediatric patients at month 1, 2, 3, 4, 5 and 6 were 67, 53, 78, 99, 56 and 61 micromol/L during treatment with RAVICTI®, respectively. Three patients reported a total of 7 hyperammonemic crises defined as having signs and symptoms consistent with hyperammonemia (such as frequent vomiting, nausea, headache, lethargy, irritability, combativeness, and/or somnolence) associated with high venous ammonia levels and requiring medical intervention. Hyperammonemic crises were precipitated by vomiting, upper respiratory tract infection, gastroenteritis, decreased caloric intake or had no identified precipitating event (3 events). There were three additional patients who had one venous ammonia level that exceeded 100 micromol/L which was not associated with a hyperammonemic crisis.

[2] = HPN-100-012 switch-over study, pharmacokinetics of HPN-100 and NaPBA in pediatric UCD patients; type: in vivo, human; settings: HPN-100-012 (N = 15), TID with meals
Procedure: HPN-100-012, an open-label, fixed sequence, switch-over study of the safety, PK and efficacy of HPN-100 compared to NaPBA in patients with UCDs, with a 12-month safety extension part. The switch-over part of the study and the 12-month safety extension are complete. The switch-over part was conducted at 7 U.S. centers and enrolled 15 pediatric UCD patients between 29 days and <6 year of age, all of whom completed the study. After review of all the safety data by the DSMB, 8 additional subjects were enrolled in the study after the switch-over phase was completed. The primary efficacy endpoint was the 24-hour AUC (area under the curve) for blood ammonia on Day 1 compared with Day 10.
The pharmacokinetics of the short term studies can be summarized as follows. Mean exposure levels of HPN-100 metabolites PBA, PAA, and PAGN after doses of HPN-100 and NaPBA with meals (TID) in pediatric (29 days to 17 years of age) UCD patients in HPN-100-005 and HPN-100-012 studies are summarized below. The mean exposure to PBA, the parent metabolite, and mean exposure to PAGN, the terminal metabolite, show no systematic variation across age groups, while PAA exposure tended to decrease with increasing age, a finding consistent with those from population PK modeling which indicate that the rate of clearance/metabolism of PAA varies directly with body size. While systemic metabolite exposure, assessed as peak plasma concentration (Cmax) or AUC, is generally similar for HPN-100 and NaPBA, the minimum concentration (Cmin-ss) was higher—and/or percent-fluctuation less—for plasma PAGN, a finding consistent with slower gastrointestinal absorption of PBA when administered orally as HPN-100.

[3] = Study 6 extension phase, normalized to 28 to 57 micromol/L

SMILES: O=C(CCCc1ccccc1)OCC(COC(=O)CCCc1ccccc1)OC(=O)CCCc1ccccc1 [HPN-100, benzenebutanoic acid, 1′,1″-(1,2,3-propanetriyl) ester]
- additional patients with one venous ammonia level exceeding 100 micromol/L not associated with a hyperammonemic crisis ([1]; Study 6): three
- patients successfully transitioned (no signs and symptoms of hyperammonemia and venous ammonia less than 100 micromol/L) ([1]; Study 6, 10 patients 2 months to <2 years, 7 days): Nine
- day 7 ammonia values of two individual patients ([1]; Study 6, no associated signs and symptoms of hyperammonemia, listed as RAVICTI®): 150 µmol/L and 111 µmol/L
- total hyperammonemic crises ([1]; Study 6, reported by three patients): 7
- mean normalized venous ammonia, month 1 [1, 3]: 67 µmol/L
- mean normalized venous ammonia, month 2 [1, 3]: 53 µmol/L
- mean normalized venous ammonia, month 3 [1, 3]: 78 µmol/L
- mean normalized venous ammonia, month 4 [1, 3]: 99 µmol/L
- mean normalized venous ammonia, month 5 [1, 3]: 56 µmol/L
- mean normalized venous ammonia, month 6 [1, 3]: 61 µmol/L
- Plasma PAA % Fluctuation ([2]; arithmetic mean): 2141%
- Plasma PAA AUC0-24 ([2]; arithmetic mean): 1096 µg·h/mL
- Plasma PAA CLss/F ([2]; arithmetic mean): 25538 mL/min
- Plasma PAGN CLss/F ([2]; arithmetic mean): 10830 mL/min
- Plasma PBA CLss/F ([2]; arithmetic mean): 22610 mL/min
- Plasma PBA Cmin-ss ([2]; arithmetic mean): 750 ng/mL
- Plasma PAA Cmax-ss ([2]; arithmetic mean (CV %)): 84700 ng/mL
- Plasma PAA Cmin-ss ([2]; arithmetic mean (CV %)): 26100 ng/mL
- Plasma PAGN Cmin-ss ([2]; arithmetic mean (CV %)): 19900 ng/mL
